Data reported in patent US20240315993A1, “ANTIPARASITIC COMPOUNDS” (Intervet Inc., priority 2021, published 2024).

Tests used:
[1] = tested on: Copepodids (juvenile sea lice stage of Lepeophtheirus salmonis); assay: Juvenile sea lice contact assay; conditions: Lepeophtheirus salmonis, ~24 h, read-out: Sea lice inhibition (% of dead+damaged copepodids); for inhibition at 0.1 µM: 100 nM in seawater; for inhibition at 0.01 µM: 10 nM in seawater
Method: Copepodids (juvenile sea lice stage of Lepeophtheirus salmonis) were exposed to seawater spiked with declining concentrations of a test compound (dissolved in a DMSO sea-water mixture). Sea lice inhibition (% of dead+damaged copepodids) was assessed after approximately 24 hours of continuous exposure. The vitality of used parasites was confirmed in a negative (solvent) control group.

[2] = tested on: Fly larvae I (Lucilia cuprina); assay: Fly larvae contact/feeding assay; conditions: 48 h, read-out: Inhibition of fly larvae development
Method: Fly larvae I (Lucilia cuprina) were grown in medium spiked with declining concentrations of a test compound (dissolved in a DMSO-emulsifier-deionized water mixture). Inhibition of fly larvae development (%) was assessed after approximately 48 hours of continuous exposure. The vitality of used parasites was confirmed in negative control groups (i.e., an untreated control and a solvent control).

[3] = tested on: bed bugs (Cimex lectularius); assay: Guinea pig - efficacy against bed bug; format: in vivo; conditions: for effective to control bed bugs: 5 mg/kg, at least until Day 10, both administration routes (oral, subcutaneous)
Method in brief: (§1)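 Guinea pigs given 5 mg/kg test compound orally (gavage) or s.c. in 10% DMF/emulsifier plus 90% water for injection, with local co-infestations of Ornithodoros moubata juveniles and Cimex lectularius at several post-treatment times. Engorged parasites scored dead/damaged about 24 h after collection; % inhibition versus pretreatment baseline by modified Schneider-Orelli formula.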

[4] = tested on: Rhipicephalus microplus tick larvae; assay: Tick larvae contact assay; conditions: ~3 min immersion, assessed ~24 h after, read-out: Tick inhibition (% of damage+dead ticks)
Method: Tick larvae (Rhipicephalus microplus) were immersed for approximately 3 minutes in declining concentrations of a test compound (dissolved in a DMSO-emulsifier-deionized water mixture). Tick inhibition (% of damage+dead ticks per test concentration) was assessed approximately 24 hours after contact exposure. The vitality of used parasites was confirmed in negative control groups (i.e. an untreated control and a solvent control).

[5] = tested on: juvenile soft ticks (Ornithodoros moubata); assay: Guinea pig - efficacy against argaside tick; format: in vivo; conditions: for effective to control ticks: at least until Day 10, both administration routes (oral, subcutaneous)
Method in brief: as §1

Lepeophtheirus salmonis [6] = assay: Salmon - in vivo efficacy against sea lice using gavage administration; conditions: 5 mg/kg once by gavage, day -3 infestation, counted around day 28
Method in brief: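 Salmon given a single oral gavage of 5 mg/kg in 5% DMSO/95% fish oil on day 0, with vehicle controls. L. salmonis copepodid infestations around days −28, −3 and 17; lice counted by stage around day 28, efficacy as % reduction versus control by Abbott's formula.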

Lepeophtheirus salmonis [7] = assay: as above; conditions: po, 168 h, read-out: therapeutic efficacy against (pre-)adult sea lice (% reduction vs control), salmon, 5 mg/kg once by gavage, day -28 infestation, counted day 7
[8] = tested on: Mobile stages of sea lice (pre-adults, adults of Lepeophtheirus salmonis); assay: Adult sea lice contact assay; conditions: pre-adults/adults, assessed after ~1 and 24 h, read-out: EC50 (sea lice inhibition, dead+damaged)
Method: Mobile stages of sea lice (i.e., pre-adults, adults of Lepeophtheirus salmonis) were exposed to seawater spiked with declining concentrations of a test compound (dissolved in a PEG sea-water mixture). Sea lice inhibition (% of dead+damaged sea lice) was assessed after approximately 1 and 24 hours of continuous exposure in comparison to a negative (solvent) control group.

[9] = tested on: Adult fleas (Ctenocephalides felis); assay: Flea feeding assay; conditions: 1 ppm in blood, ~48 h membrane feeding, read-out: flea inhibition (% of dead+damaged fleas)
Method: Adult fleas (Ctenocephalides felis) of defined age were fed on artificial membranes with blood spiked with declining concentrations of a test compound (dissolved in a DMSO-emulsifier-blood mixture). After approximately 48 hours of continuous feeding, flea inhibition (i.e., % of dead+damaged fleas per test concentration) was assessed. The vitality of used parasites was confirmed in negative control groups (i.e., an untreated control and a solvent control).

[10] = tested on: Rhipicephalus sanguineus or Haemaphysalis elliptica ticks; assay: Dog - efficacy against ticks; format: in vivo; conditions: for therapeutic efficacy against ticks (active = efficacy ≥80 percent): D2
Method: (§2) Beagle dogs were infested (whole body) with 80 Ctenocephalides felis fleas and 50 Rhipicephalus sanguineus or Haemaphysalis elliptica ticks (sex ratio 1:1) two days before the treatment day (Day 0), and repeatedly thereafter. Dogs of treatment groups were treated with 10 mg/kg bodyweight of a test compound orally (compound weighed in gelatin capsule), topically (spot-on, DMA 92%/DEET 8%) or subcutaneously (PEG 200 90%/water for injection 10%). Dogs of the negative control group received only an empty gelatin capsule orally and the spot-on formulation excipients topically.
(§3) Compounds with efficacy ≥80 percent were found active.

[11] = tested on: Ctenocephalides felis fleas; assay: Dog - efficacy against fleas; format: in vivo; conditions: for therapeutic efficacy against fleas (active = efficacy ≥80 percent): D2
Method: as §2, §3

Rhipicephalus microplus = assay: Cattle - efficacy against one-host tick; format: in vivo; conditions: 1 mg/kg pour on in Imwitor 988+Miglyol 840
Method: Cattle were infested (whole body) with up to 3000 Rhipicephalus microplus larvae two or three times per week before and after the treatment day (Day 0). Cattle of treatment groups were treated subcutaneously or topically (spray or pour-on) at a dose of 1 mg/kg bodyweight of a test compound. As subcutaneous formulation either 2-pyrrolidon 50%/Tween 80 50% or NMP 60%/PEG300 40% was used. As topical formulation either a spray solution (DMF/Emulsifier 2%/tap water 98%) (Compound 4) or a DMA 92%/DEET 8% pour-on solution (all other compounds) or a pour-on solution containing Imwitor 988 (20%)+Miglyol 840 (QS) (Compound 453 and Compound 466) or a pour-on solution containing Miglyol 840 (QS) (Compound 453) was used. Cattle of the negative control group received only the formulation excipients of the respective administration route.
Fully engorged female ticks dropping from cattle were collected daily after treatment and counted in treatment and control groups. Efficacy was expressed using the standard ADEQ analysis method (ADEQ calculation in accordance with WAAVP guidelines for evaluating the efficacy of acaricides against ticks on ruminants; Veterinary parasitology 136 (2006) 29-43). Compounds with efficacy ≥80 percent were found active/effective. Onset of efficacy means the first Day with efficacy ≥80 percent. Duration of efficacy means the last Day with efficacy ≥80 percent.

[12] = 5 mg/kg subcutaneous, after 7 days
[13] = 5 mg/kg subcutaneous, after 10 days
[14] = 5 mg/kg subcutaneous, after 14 days
[15] = 5 mg/kg subcutaneous, after 17 days

Structure (SMILES) | inhibition at 0.1 µM [1] | inhibition at 100 ppm [2] | activity against bed bugs (≥80% inhibition, killed+damaged) ([3]; 5 mg/kg oral, Day 0) | activity against bed bugs (≥80% inhibition, killed+damaged) ([3]; 5 mg/kg oral, after 7 days) | activity against bed bugs (≥80% inhibition, killed+damaged) ([3]; 5 mg/kg subcutaneous, Day 0) | activity against bed bugs (≥80% inhibition, killed+damaged) [3, 12] | activity against bed bugs (≥80% inhibition, killed+damaged) [3, 13] | activity against bed bugs (≥80% inhibition, killed+damaged) [3, 14] | activity against bed bugs (≥80% inhibition, killed+damaged) [3, 15] | inhibition at 49 µM [4] | inhibition at 388 µM [4] | inhibition at 100 ppm [4] | activity against tick nymphs (≥80% inhibition, killed+damaged) ([5]; 5 mg/kg oral, Day 0) | activity against tick nymphs (≥80% inhibition, killed+damaged) ([5]; 5 mg/kg oral, after 7 days) | activity against tick nymphs (≥80% inhibition, killed+damaged) ([5]; 5 mg/kg subcutaneous, Day 0) | activity against tick nymphs (≥80% inhibition, killed+damaged) [5, 12] | activity against tick nymphs (≥80% inhibition, killed+damaged) [5, 13] | therapeutic efficacy against juvenile sea lice (% reduction vs control) (Lepeophtheirus salmonis [6]) | inhibition in vivo at 5 mg/kg (Lepeophtheirus salmonis [7]) | EC50 [8] | other results
CN(C(=O)c1cc(NC(=O)[C@H]2[C@H](c3cc(Cl)cc(Cl)c3)C2(Cl)Cl)ccc1Cl)c1ccc(F)cc1 [Compound 51] | ≥ 80% | 80% | immediate activity | activity | immediate activity | activity | activity | activity | activity | 80% | 80% | 80% | immediate activity | activity | immediate activity | activity | activity | – | – | – | inhibition at 25 µM ([4]; 25 μM): ≥ 80%; activity against tick nymphs (≥80% inhibition, killed+damaged) [5, 14]: activity; activity against tick nymphs (≥80% inhibition, killed+damaged) [5, 15]: activity; duration of efficacy, subcutaneous compared with oral administration ([5]; 5 mg/kg, ticks and bed bugs): longer duration of efficacy
O=C(Nc1ncc(F)cc1F)c1cc(NC(=O)[C@H]2[C@H](c3ccc(Cl)c(Cl)c3)C2(Cl)Cl)ccc1Cl [Compound 86] | – | 80% | immediate activity | activity | immediate activity | activity | activity | – | – | – | – | 80% | immediate activity | activity | immediate activity | activity | activity | 100% | 100% | ≤ 10 nM | inhibition at 0.01 µM [1]: 100%; activity against bed bugs (≥80% inhibition, killed+damaged) ([3]; 5 mg/kg oral, after 10 days): activity; effective to control bed bugs [3]: 100%; inhibition at 1 ppm [9]: 80%; activity against tick nymphs (≥80% inhibition, killed+damaged) ([5]; 5 mg/kg oral, after 10 days): activity; effective to control ticks ([5]; 5 mg/kg): 100%
O=C(Nc1ncc(F)cc1F)c1cc(NC(=O)[C@H]2[C@H](c3ccc(F)c(Cl)c3)C2(Cl)Cl)ccc1Cl [Compound 89] | – | – | immediate activity | – | immediate activity | – | – | – | – | 80% | 80% | 80% | immediate activity | – | immediate activity | – | – | 100% | 100% | ≤ 10 nM | inhibition at 0.01 µM [1]: 100%; inhibition at 1 ppm [9]: 80%
O=C(Nc1cnc(F)cc1F)c1cc(NC(=O)[C@H]2[C@H](c3cc(Cl)c(Cl)c(Cl)c3)C2(Cl)Cl)ccc1Cl [Compound 466] | 100% | – | immediate activity | activity | immediate activity | activity | activity | activity | activity | – | – | – | immediate activity | activity | immediate activity | activity | – | 80% | 80% | ≤ 10 nM | efficacy against ticks in dogs (conclusion) ([10]; 10 mg/kg): therapeutic efficacy; therapeutic efficacy against ticks (active = efficacy ≥80 percent) ([10]; 10 mg/kg oral): active; therapeutic efficacy against ticks (active = efficacy ≥80 percent) ([10]; 10 mg/kg topical spot-on): active; efficacy against fleas in dogs (conclusion) ([11]; 10 mg/kg): therapeutic efficacy; therapeutic efficacy against fleas (active = efficacy ≥80 percent) ([11]; 10 mg/kg oral): active; therapeutic efficacy against fleas (active = efficacy ≥80 percent) ([11]; 10 mg/kg topical spot-on): active; activity against bed bugs (≥80% inhibition, killed+damaged) ([3]; 5 mg/kg oral, after 10 days): activity; activity against bed bugs (≥80% inhibition, killed+damaged) ([3]; 5 mg/kg oral, after 14 days): activity; activity against bed bugs (≥80% inhibition, killed+damaged) ([3]; 5 mg/kg oral, after 17 days): activity; effective to control bed bugs [3]: 100%; duration of efficacy (last Day with efficacy ≥80 percent) (Rhipicephalus microplus): 87 days; onset of efficacy (first Day with efficacy ≥80 percent) (Rhipicephalus microplus): 1 days; activity against tick nymphs (≥80% inhibition, killed+damaged) ([5]; 5 mg/kg oral, after 10 days): activity; activity against tick nymphs (≥80% inhibition, killed+damaged) ([5]; 5 mg/kg oral, after 14 days): activity; effective to control ticks ([5]; 5 mg/kg): 100%
